Data on eight molecules can be found in article doi:10.1101/2024.06.13.594677v1 (biorxiv, 2024).

Experiment [1] deals with T1, human 5-HT2A receptor (Homo sapiens, UniProt P28223). The arrangement: species or system SH-SY5Y expressing human 5-HT2A. As to conditions: agonist.
For experiment [2], the target named is T1, human 5-HT2A receptor. Also noted: species or system SH-SY5Y expressing human 5-HT2A. To be noted: agonist. The source holds these as a separate data set.
The target of experiment [3] is T1, human 5-HT2A receptor. Also noted: species or system SH-SY5Y expressing human 5-HT2A. As to conditions: agonist. The source holds these as a separate data set.
Experiment [4] deals with T2, rat 5-HT2A receptor (Rattus norvegicus, UniProt P14842). Also noted: species or system C6 glioma (endogenous rat 5-HT2A). As to conditions: relative to 10 uM 5-HT; agonist.
T2 sequence (P14842 whole entry): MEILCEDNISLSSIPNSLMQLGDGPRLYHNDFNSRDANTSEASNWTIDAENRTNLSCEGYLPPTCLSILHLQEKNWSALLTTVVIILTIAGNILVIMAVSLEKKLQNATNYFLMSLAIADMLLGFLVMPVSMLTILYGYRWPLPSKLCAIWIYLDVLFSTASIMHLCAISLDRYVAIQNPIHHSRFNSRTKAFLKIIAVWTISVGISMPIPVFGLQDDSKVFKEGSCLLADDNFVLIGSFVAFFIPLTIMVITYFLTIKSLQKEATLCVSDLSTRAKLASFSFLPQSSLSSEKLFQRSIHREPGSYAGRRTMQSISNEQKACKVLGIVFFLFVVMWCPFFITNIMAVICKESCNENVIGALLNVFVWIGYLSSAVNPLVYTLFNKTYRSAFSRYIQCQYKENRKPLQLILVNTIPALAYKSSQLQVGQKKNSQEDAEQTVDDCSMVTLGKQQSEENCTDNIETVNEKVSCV
Experiment [5] has as its target T2, rat 5-HT2A receptor.
Experiment [6] concerns the target T1, human 5-HT2A receptor. It counts as cell-based. As to conditions: beta-arrestin2 agonism; GRK2 and GRK3 co-expressed; DPBS with Ca2+; […] min.
Experiment [7] addresses T1, human 5-HT2A receptor. It counts as cell-based. To be noted: Gq/Ca2+ agonism; room temperature; HBSS with Ca2+.
For experiment [8], the target named is T2, rat 5-HT2A receptor. The experiment in a line: cytosolic Ca2+. To be noted: Gq/Ca2+ agonism; room temperature; HBSS with Ca2+. It is filed as cell-based.
The target of experiment [9] is T1, human 5-HT2A receptor. It counts as cell-based. As to conditions: Gq/IP1 agonism; LiCl; […] °C, […] h.

Like-named read-outs stand apart in the source and are kept apart here.

T1 sequence (P28223 whole entry): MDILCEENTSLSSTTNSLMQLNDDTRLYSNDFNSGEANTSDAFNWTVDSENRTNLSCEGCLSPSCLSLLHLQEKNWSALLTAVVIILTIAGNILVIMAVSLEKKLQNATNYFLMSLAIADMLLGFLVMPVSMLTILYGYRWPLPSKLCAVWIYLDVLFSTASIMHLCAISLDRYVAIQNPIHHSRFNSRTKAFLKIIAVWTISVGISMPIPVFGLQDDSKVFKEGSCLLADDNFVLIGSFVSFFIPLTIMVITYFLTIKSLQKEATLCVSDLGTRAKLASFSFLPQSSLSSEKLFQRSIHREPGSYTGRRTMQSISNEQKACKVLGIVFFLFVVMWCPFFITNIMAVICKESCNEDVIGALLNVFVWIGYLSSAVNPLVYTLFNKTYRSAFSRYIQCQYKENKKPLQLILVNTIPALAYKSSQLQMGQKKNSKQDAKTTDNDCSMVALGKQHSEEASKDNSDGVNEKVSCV

By EC50 is commonly meant the midpoint of the concentration-response curve. Higher therefore signals weaker potency. Take `COc1ccc2[nH]cc(CCN(C)C)c2c1` [5-MeO-DMT, 5-methoxy-N,N-dimethyltryptamine]: on human 5-HT2A receptor [1], the “IP1 Emax” value is 0.93 ± 0.027. Besides, the “β-arrestin2 Emax” value at human 5-HT2A receptor [2] is 0.70 ± 0.020. At human 5-HT2A receptor [3], the “Ca2+ Emax” value came out at 0.73 ± 0.033. For the same molecule, on rat 5-HT2A receptor [4], the “Ca2+ Emax (C6)” value turned out to be 0.36 ± 0.021%. This molecule also had an EC50 on rat 5-HT2A receptor [5] of 240 nM.
Usually pEC50 stands for the negative decadic logarithm of the EC50, by convention in mol/L. A higher pEC50 goes with a small EC50. As for `COc1cc(CCNCc2ccccc2OC)c(OC)cc1Br` [25B-NBOMe, 4-bromo-2,5-dimethoxy-N-(2-methoxybenzyl)phenethylamine], the pEC50 at human 5-HT2A receptor [6] is on record as 8.20 ± 0.079; on human 5-HT2A receptor [7], 7.84 ± 0.15; at rat 5-HT2A receptor [8], 8.10 ± 0.23; at human 5-HT2A receptor [9], 8.95 ± 0.28.
For the molecule `COc1cc(CCNCc2ccccc2OC)c(OC)cc1Br` [25B-NBOMe], the “IP1 Emax” value on human 5-HT2A receptor [1] worked out at 0.75 ± 0.040. On human 5-HT2A receptor [2], the “β-arrestin2 Emax” value was determined as 0.88 ± 0.017. Moreover, the “Ca2+ Emax” value on human 5-HT2A receptor [3] is recorded as 0.57 ± 0.021. For the same molecule, on rat 5-HT2A receptor [4], the “Ca2+ Emax (C6)” value was 0.46 ± 0.027%.
As to `COc1cc(CC(C)N)c(OC)cc1I` (stereo not shown) [DOI, 2,5-dimethoxy-4-iodoamphetamine], on human 5-HT2A receptor [1], the “IP1 Emax” value is listed as 1.12 ± 0.025. Besides, on human 5-HT2A receptor [2], the “β-arrestin2 Emax” value is 0.73 ± 0.027. Moreover, the “Ca2+ Emax” value on human 5-HT2A receptor [3] turned out to be 0.49 ± 0.019. On rat 5-HT2A receptor [4], the “Ca2+ Emax (C6)” value was found to be 0.32 ± 0.017%. Further, the pEC50 at rat 5-HT2A receptor [8] is 7.14 ± 0.16.
`CCN(CC)C(=O)[C@@H]1C=C2c3cccc4[nH]cc(c34)C[C@H]2N(C)C1` [LSD]: the “IP1 Emax” value on human 5-HT2A receptor [1] is recorded as 0.78 ± 0.039. At human 5-HT2A receptor [3], the “Ca2+ Emax” value worked out at 0.36 ± 0.027. The “Ca2+ Emax (C6)” value at rat 5-HT2A receptor [4] is reported as 0.19 ± 0.0092%.
Consider `COc1cc(CCN)cc(OC)c1OC` [Mescaline, 3,4,5-trimethoxyphenethylamine], for which the “IP1 Emax” value at human 5-HT2A receptor [1] was determined as 0.81 ± 0.050. On human 5-HT2A receptor [2], the “β-arrestin2 Emax” value was 0.64 ± 0.059. For the same molecule, the “Ca2+ Emax” value at human 5-HT2A receptor [3] was found to be 0.47 ± 0.031. For the same molecule, the “Ca2+ Emax (C6)” value on rat 5-HT2A receptor [4] is given as 0.40 ± 0.025%. The molecule also showed an EC50 on rat 5-HT2A receptor [5] of 295 nM.
As to `COc1ccc2c3c([nH]c2c1)CCN(C)CC3` [TBG], the “IP1 Emax” value on human 5-HT2A receptor [1] turned out to be 0.35 ± 0.064. The “β-arrestin2 Emax” value at human 5-HT2A receptor [2] came to 0.19 ± 0.026. On human 5-HT2A receptor [3], the “Ca2+ Emax” value was 0.13 ± 0.033.
For `CN(C)CCc1c[nH]c2cccc(O)c12` [psilocin], the “IP1 Emax” value at human 5-HT2A receptor [1] was 0.80 ± 0.030. At human 5-HT2A receptor [2], the “β-arrestin2 Emax” value is given as 0.28 ± 0.019. Besides, on human 5-HT2A receptor [3], the “Ca2+ Emax” value amounted to 0.40 ± 0.019. The “Ca2+ Emax (C6)” value on rat 5-HT2A receptor [4] was 0.12 ± 0.0079%. Further, the pEC50 at rat 5-HT2A receptor [8] is given as 7.15 ± 0.20.
